Legend:
Format in all cases: in vivo
Conditions in all cases: 300 g a.i./hectare, 20th day after spraying
velvetleaf [1] = test: Foliar treatment test (7)
Description: (§1) 90 Parts by weight of the above carrier and 10 parts by weight of each of Compounds obtained in the above Preparation Examples were uniformly pulverized and mixed to obtain herbicides. Further, for Herbicide Comparative Examples, comparative herbicides were prepared by uniformly pulverizing and mixing 90 parts by weight of the above carrier and 10 parts by weight of each of the following Compounds x, y, A, B and C.
(§2) (7) Biological Test (Foliar Treatment Test, Herbicide Examples 43-47 and Comparative Examples 11 and 12)
(§3) Seeds of weeds such as large crabgrass, barnyardgrass, green foxtail, cocklebur, velvetleaf and slender amaranth and seeds of corn, wheat and barley were sown in 1/5,000-are Wagner pots filled with upland soil, and covered with upland soil. The seeds were grown in a greenhouse, and at the stage of 1 to 2 leaves of these plants, a predetermined amount of the herbicide prepared in the above (1) was suspended in water and uniformly sprayed onto leaf and stalk portions at a rate of 200 liter/10 ares. Thereafter, the plants were grown in the greenhouse, and on the 20th day after the spraying treatment, the herbicide was evaluated for herbicidal efficacy.
(§4) The herbicidal efficacy and phytotoxcity to crops were shown on the basis of the following ratings.
(§5) The ratio of remaining plant weight to non-treated was determined on the basis of the ratio of remaining plant weight to non-treated=(remaining plant weight in treated plot/remaining plant weight in non-treated plot)×100. This is also applicable to biological tests hereinafter.

large crabgrass [2] = test: Foliar treatment test (7)
Description: as §1, §2, §3, §4, §5

barnyardgrass = test: Foliar treatment test (7)
Description: as §1, §2, §3, §4, §5

green foxtail [3] = test: Foliar treatment test (7)
Description: as §1, §2, §3, §4, §5

slender amaranth [4] = test: Foliar treatment test (7)
Description: as §1, §2, §3, §4, §5

cocklebur [5] = test: Foliar treatment test (7)
Description: as §1, §2, §3, §4, §5

velvetleaf [6] = test: Upland soil treatment test (8)
Description: as §1
(§6) (8) Biological Test (Upland Soil Treatment Test, Herbicide Examples 48-52 and Herbicide Comparative Examples 13 and 14)
as §3, with “barnyard brass,” for “barnyardgrass,”, “amarnth” for “amaranth”, “covert” for “covered”, “Then,” for “The seeds were grown in a greenhouse, and at the stage of 1 to 2 leaves of these plants,”, “the soil surface.” for “leaf and stalk portions at a rate of 200 liter/10 ares.”, “plant” for “plants”
(§7) The herbicidal efficacy and the phytotoxicity to crops are shown on the basis of the ratings described in (2) Foliar treatment test.

large crabgrass [7] = test: Upland soil treatment test (8)
Description: as §1, §6
as §3, with “barnyard brass,” for “barnyardgrass,”, “amarnth” for “amaranth”, “covert” for “covered”, “Then,” for “The seeds were grown in a greenhouse, and at the stage of 1 to 2 leaves of these plants,”, “the soil surface.” for “leaf and stalk portions at a rate of 200 liter/10 ares.”, “plant” for “plants”
as §7

green foxtail [8] = test: Upland soil treatment test (8)
Description: as §1, §6
as §3, with “barnyard brass,” for “barnyardgrass,”, “amarnth” for “amaranth”, “covert” for “covered”, “Then,” for “The seeds were grown in a greenhouse, and at the stage of 1 to 2 leaves of these plants,”, “the soil surface.” for “leaf and stalk portions at a rate of 200 liter/10 ares.”, “plant” for “plants”
as §7

barnyard grass = test: Upland soil treatment test (8)
Description: as §1, §6
as §3, with “barnyard brass,” for “barnyardgrass,”, “amarnth” for “amaranth”, “covert” for “covered”, “Then,” for “The seeds were grown in a greenhouse, and at the stage of 1 to 2 leaves of these plants,”, “the soil surface.” for “leaf and stalk portions at a rate of 200 liter/10 ares.”, “plant” for “plants”
as §7

slender amaranth [9] = test: Upland soil treatment test (8)
Description: as §1, §6
as §3, with “barnyard brass,” for “barnyardgrass,”, “amarnth” for “amaranth”, “covert” for “covered”, “Then,” for “The seeds were grown in a greenhouse, and at the stage of 1 to 2 leaves of these plants,”, “the soil surface.” for “leaf and stalk portions at a rate of 200 liter/10 ares.”, “plant” for “plants”
as §7

cocklebur [10] = test: Upland soil treatment test (8)
Description: as §1, §6
as §3, with “barnyard brass,” for “barnyardgrass,”, “amarnth” for “amaranth”, “covert” for “covered”, “Then,” for “The seeds were grown in a greenhouse, and at the stage of 1 to 2 leaves of these plants,”, “the soil surface.” for “leaf and stalk portions at a rate of 200 liter/10 ares.”, “plant” for “plants”
as §7
Further: ranges in brackets are in %.

| Structure (SMILES) | Herbicidal Efficacy velvetleaf (velvetleaf [1]) | Herbicidal Efficacy large crabgrass (large crabgrass [2]) | Herbicidal Efficacy barnyard grass (barnyardgrass) | Herbicidal Efficacy green foxtail (green foxtail [3]) | Herbicidal Efficacy slender amaranth (slender amaranth [4]) | Herbicidal Efficacy cocklebur (cocklebur [5]) | Herbicidal Efficacy velvetleaf (velvetleaf [6]) | Herbicidal Efficacy large crabgrass (large crabgrass [7]) | Herbicidal Efficacy green foxtail (green foxtail [8]) | Herbicidal Efficacy barnyard grass (barnyard grass) | Herbicidal Efficacy slender amaranth (slender amaranth [9]) | Herbicidal Efficacy cocklebur (cocklebur [10]) |
| --- | --- | --- | --- | --- | --- | --- | --- | --- | --- | --- | --- | --- |
| CCn1ncc(C(=O)c2cc(C)c3c(c2C)CCCS3)c1O [Compound 47-2, 5,8-dimethyl-6-(1-ethyl-5-hydroxypyrazol-4-yl)carbonylthiochroman] | 5 (0) | 5 (0) | 2 (41-60) | 5 (0) | 5 (0) | 5 (0) | 5 (0) | 1 (61-80) | 4 (1-20) | 5 (0) | 5 (0) | 0 (81-100) |
| CCn1ncc(C(=O)c2cc(C)c3c(c2C)C=CCS3)c1O [Compound 47-1, 5,8-dimethyl-6-(1-ethyl-5-hydroxypyrazol-4-yl)carbonyl-3,4-dehydrothiochroman] | 4 (1-20) | 0 (81-100) | 0 (81-100) | 0 (81-100) | 0 (81-100) | 5 (0) | 0 (81-100) | 0 (81-100) | 0 (81-100) | 0 (81-100) | 5 (0) | 0 (81-100) |

Reference: patent publication US6677460B1, “Aromatic carboxylic acid bicyclic sulfur compounds” (Idemitsu Kosan Company, Limited, priority 1993, dated 2004)
